In patent US7786128B2, “Indole or benzimidazole derivatives as CB1 inverse agonists” (Hoffmann-La Roche Inc., priority 2004, dated 2010):
Read-outs that look alike come from different tables or passages of the source. Values belong to the compound of their own block, whether it stands above or below them.

Experiments:
[1] = molecular target: T1, human cannabis CB1 receptor (Homo sapiens, UniProt P21554); assay: Affinity for cannabinoid CB1 receptors, [3H]-CP-55,940 radioligand binding on HEK cell membranes
T1 construct: expressed in transfected cells; host or cells: human embryonic kidney (HEK) cells, Semliki Forest Virus system
T1 sequence (P21554 whole entry): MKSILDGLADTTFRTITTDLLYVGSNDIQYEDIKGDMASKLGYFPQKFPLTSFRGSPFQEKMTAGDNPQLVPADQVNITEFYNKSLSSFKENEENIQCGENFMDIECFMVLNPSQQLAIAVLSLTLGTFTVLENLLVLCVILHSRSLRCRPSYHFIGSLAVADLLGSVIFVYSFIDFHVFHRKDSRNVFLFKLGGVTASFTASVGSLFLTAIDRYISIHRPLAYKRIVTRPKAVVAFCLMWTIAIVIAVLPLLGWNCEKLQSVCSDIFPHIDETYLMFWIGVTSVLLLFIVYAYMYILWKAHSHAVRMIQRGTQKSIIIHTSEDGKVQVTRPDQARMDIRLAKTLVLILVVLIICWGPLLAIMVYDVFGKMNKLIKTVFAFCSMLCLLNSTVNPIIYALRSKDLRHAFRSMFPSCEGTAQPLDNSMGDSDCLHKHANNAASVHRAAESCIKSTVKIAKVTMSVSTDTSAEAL
Procedure: The affinity of the compounds of the invention for cannabinoid CB1 receptors was determined using membrane preparations of human embryonic kidney (HEK) cells in which the human cannabis CB1 receptor is transiently transfected using the Semliki Forest Virus system in conjunction with [3H]-CP-55,940 as radioligand. After incubation of a freshly prepared cell membrane preparation with the [3H]-ligand, with or without addition of compounds of the invention, separation of bound and free ligand was performed by filtration over glassfiber filters. Radioactivity on the filter was measured by liquid scintillation counting.
The compounds of formula (I) show an excellent affinity for the CB1 receptor, determined with the experimental conditions described in Devane et. al. Mol. Pharmacol. 34 (1988) 605-613.

[2] = wild-type versus CB1 receptor knockout mice; cited from earlier work
[3] = doses of 5, 10 and 20 mg daily; cited from earlier work
[4] = affinity for the CB1 receptor, HEK membranes, [3H]-CP-55,940, read-out: IC50

SMILES: CC(Oc1ccccc1)c1nc2ccc(N3CCN(S(=O)(=O)N(C)C)CC3)cc2n1Cc1ccc(Cl)cc1 (centres unmarked) [Example 51, 4-[3-(4-chloro-benzyl)-2-(1-phenoxy-ethyl)-3H-benzoimidazol-5-yl]-piperazine-1-sulfonic acid dimethylamide]
IC50 [1]: 60 nM

IC50 [1, 4]: 30 nM
SMILES: CCCCNC(=O)c1ccc2c(c1)nc(COc1ccccc1)n2Cc1ccc(OC(F)(F)F)cc1 [Example 61, 2-Phenoxymethyl-1-(4-trifluoromethoxy-benzyl)-1H-benzoimidazole-5-carboxylic acid butyl-amide]

IC50 [1, 4]: 20 nM
SMILES: CCCCNC(=O)c1ccc2c(c1)cc(COc1ccccc1)n2Cc1ccc(OC(F)(F)F)cc1 [Example 101, 2-phenoxymethyl-1-(4-trifluoromethoxy-benzyl)-1H-indole-5-carboxylic acid butylamide]

SMILES: Cc1c(C(=O)NN2CCCCC2)nn(-c2ccc(Cl)cc2Cl)c1-c1ccc(Cl)cc1 [SR 141716]
food intake [2]: reduces food intake in wild-type but not knockout mice
body weight compared to placebo [3]: significantly reduced body weight
